Laboratory results published in the supplement of paper PMC3493320.
pIC50: −log10 of the molar value.

System: NCI-H295R
Test: IC50 (antiproliferative, ATP content)
Conditions: 48 h
Method in brief: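 Following overnight culture of adrenocortical carcinoma cells (1500 per well) in 1536-well plates with serum-free ITS-supplemented DMEM, library compounds were pin-transferred at 8 final concentrations from 0.6 nM to 46 µM. Incubation lasted 48 h at 37 °C, 5% CO2, and the CellTiter-Glo signal was read after 20 min at room temperature. Data were fitted with a four-parameter logistic model. Each IC50 came from that fit after normalisation to vehicle and positive-control wells, and compounds without a concentration response were reported as above the top dose.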

Structure (SMILES)	pIC50
CC[C@H]1OC(=O)[C@H](C)[C@@H](O[C@H]2C[C@@](C)(OC)[C@@H](O)[C@H](C)O2)[C@H](C)[C@@H](O[C@@H]2O[C@H](C)C[C@H](N(C)C)[C@H]2O)[C@](C)(O)C[C@@H](C)CN(C)[C@H](C)[C@@H](O)[C@]1(C)O	< 4.34
CCOC(=O)c1ccc(N)cc1	< 4.34
CC(C)C(Br)C(=O)NC(N)=O (centres undefined)	< 4.34
c1ccc(C2(N3CCCC3)CCCCC2)cc1	< 4.34
Cc1cccc(C)c1NC(=O)CN1CCCCCC1	< 4.34
C[C@@H]1C[C@H]2[C@@H]3CCC4=CC(=O)C=C[C@]4(C)[C@@]3(F)C(O)C[C@]2(C)[C@H]1C(=O)CO (some centres undefined)	< 4.34
CCCCC1(COC(=O)CCC(=O)O)C(=O)N(c2ccccc2)N(c2ccccc2)C1=O	< 4.34
CN1[C@@H]2CC[C@H]1C[C@@H](OC(=O)c1c[nH]c3ccccc13)C2	< 4.34
C[C@]12CC[C@H]3[C@@H](CCC4=C(O)C(=O)CC[C@@H]43)[C@@H]1CC[C@@H]2OC(=O)CCC1CCCC1	< 4.34
CC(C)(C)CC(C)(C)c1cc(Cc2cc(C(C)(C)CC(C)(C)C)cc(-n3nc4ccccc4n3)c2O)c(O)c(-n2nc3ccccc3n2)c1	< 4.34
Cc1ccccc1-n1c(C)nc2ccccc2c1=O	< 4.34
C[C@@H]1CN(c2c(F)c(F)c3c(=O)c(C(=O)O)cn(C4CC4)c3c2F)C[C@H](C)N1	< 4.34
NC(=O)c1ccc([N+](=O)[O-])cc1Cl	< 4.34
CC(=O)OCC(COC(C)=O)OC(C)=O	< 4.34
N/C(N)=N/C1=NC(CSCCC(N)=NS(N)(=O)=O)=CS1	< 4.34
O=C(O[C@@H]5C4CCN(C5)CC4)N2[C@@H]([C@]3=CC=CC=C3)C1=CC=CC=C1CC2.Cl	< 4.34
Nc1nc(NC2CC2)c2ncn([C@@H]3C=C[C@@H](CO)C3)c2n1	< 4.34
CC(=O)NC[C@H]1CN(c2ccc(N3CCOCC3)c(F)c2)C(=O)O1	< 4.34
CC1=CCC(C(C)(C)O)CC1 (centres undefined)	< 4.34
CCCCCCCCCCCCCCCC(=O)O	< 4.34
O=C(O)c1cc(O)c(O)c(O)c1	< 4.34
CNC[C@H](O)c1ccc(O)c(O)c1	< 4.34
Cc1c(NC(=O)c2cccnc2)c(=O)n(-c2ccccc2)n1C	< 4.34
CCC(=O)[C@@]1(C)[C@H](C)C[C@H]2[C@@H]3CCC4=CC(=O)C=C[C@]4(C)[C@H]3[C@@H](O)C[C@@]21C	< 4.34

Structure (SMILES)	pIC50
COc1ccc2cc1Oc1cc3c(cc1OC)CC[N+](C)(C)[C@H]3Cc1ccc(cc1)Oc1c(OC)c(OC)cc3c1[C@@H](C2)[N+](C)(C)CC3.[I-].[I-]	< 4.34
C[C@]12CC[C@H]3[C@@H](CCC4=C(Cl)C(=O)CC[C@@]43C)[C@@H]1CC[C@@H]2O	< 4.34
CCCCCCCCCCCCSCCOCCO	< 4.34
O=S(=O)([O-])CCCS(=O)(=O)[O-].[Na+].[Na+]	< 4.34
Cc1nc2ccccc2n1Cc1ccc(Cl)cc1	< 4.34
Cc1onc(-c2ccccc2)c1-c1ccc(S(N)(=O)=O)cc1	< 4.34
O=C(O)Cn1c(C(=O)Nc2nc(-c3ccccc3Cl)cs2)cc2ccccc21	< 4.34
C[C@]43CCC(=O)\C=C4\CC[C@@H]1[C@@H]3CC[C@]2(C)[C@H](O)CC[C@@H]12	< 4.34
COc1nccnc1NS(=O)(=O)c1ccc(N)cc1	< 4.34
CCCCc1cc2ccccc2c(OCCN(C)C)n1.Cl	< 4.34
COc1ccccc1OCC(O)CO (centres undefined)	< 4.34
COC(=O)[C@H]1[C@H]2C[C@H]3c4[nH]c5ccccc5c4CCN3C[C@H]2CC[C@@H]1O	< 4.34
O=C(O)[C@H]1CN(C/C=C/P(=O)(O)O)CCN1	< 4.34
Nc1ccc(S(=O)(=O)Nc2ccccc2)cc1	< 4.34
O=C(O)c1ccccc1C(=O)Nc1ccc(S(=O)(=O)Nc2nccs2)cc1	< 4.34
O=[N+]([O-])c1cccc(S(=O)(=O)NCCNS(=O)(=O)c2cccc([N+](=O)[O-])c2)c1	< 4.34
[N-]=[N+]=CC(=O)OC[C@H](N)C(=O)O	< 4.34
S=P(N1CC1)(N1CC1)N1CC1	< 4.34
O=C1CCO1	< 4.34
C=C[C@H]1C[N@@]2CC[C@H]1C[C@H]2[C@H](OC(=O)OCC)c1ccnc2ccc(OC)cc12	< 4.34
CCC1(c2ccccc2)C(=O)NC(=O)NC1=O	< 4.34
COc1c(N2CCNC(C)C2)c(F)cc2c(=O)c(C(=O)O)cn(C3CC3)c12 (centres undefined)	< 4.34
BrC2=CC=C(C=C2)[C@@H]([C@@]1=CC=CC=N1)CCN(C)C.O=C(O)/C=C\C(O)=O	< 4.34
NC[C@H](O)c1ccc(O)c(O)c1.O=C(O)C(O)C(O)C(=O)O.O=C(O)C(O)C(O)C(=O)O	< 4.34

Structure (SMILES)	pIC50
CCCOC(C(=O)OC1CCN(C)CC1)(c1ccccc1)c1ccccc1.Cl	< 4.34
CC1=Nc2ccc(Cl)cc2S(=O)(=O)N1	< 4.34
Cc1nnc2n1-c1ccc(Cl)cc1C(c1ccccc1Cl)=NC2	< 4.34
O=C1CC2(CCCC2)CC(=O)N1CCCCN1CCN(c2ncccn2)CC1	< 4.34
OC[C@@H](O)[C@@H](O[C@@H]1O[C@H](CO)[C@H](O)[C@H](O)[C@H]1O)[C@H](O)[C@@H](O)CO	< 4.34
CN(C)[C@@H]1C(O)=C(C(N)=O)C(=O)[C@@]2(O)C(O)=C3C(=O)c4c(O)cccc4[C@@](C)(O)[C@H]3[C@H](O)[C@@H]12.O.O	< 4.34
CCc1c(C)[nH]c2c1C(=O)C(CN1CCOCC1)CC2 (centres undefined)	< 4.34
C=Cc1ccc(S(=O)(=O)[O-])cc1.[Na+]	< 4.34
CCCCC[C@@H](O)C1C(=O)OC(C)C(O)/C=C/C=C/C=C/C=C/C=C(\C)C(O)C(O)C(O)C[C@H](O)C[C@H](O)C[C@H](O)C[C@H](O)C[C@@H]1O (some centres undefined)	< 4.34
CCCCC[C@H](O)/C=C/[C@@H]1[C@H]2C/C(=C/CCCC(=O)[O-])O[C@H]2C[C@H]1O.[Na+]	< 4.34
Cc1ncc(CSSCc2cnc(C)c(O)c2CO)c(CO)c1O.Cl.Cl	< 4.34
ClC1=CC=C(\C3=C2/CCNCC2)C(CCC4=C3N=CC=C4)=C1	< 4.34
CCC(C(N)=O)N1CCCC1=O (centres undefined)	< 4.34
S=C=S	< 4.34
C=CCN1CCCC1CNC(=O)c1cc(S(N)(=O)=O)cc(OC)c1OC (centres undefined)	< 4.34
CO[C@@H]1[C@@H](O[C@@H]2O[C@H](C)[C@@H](O[C@H]3C[C@@](C)(O)[C@@H](O)[C@H](C)O3)[C@H](N(C)C)[C@H]2O)[C@@H](CC=O)C[C@@H](C)[C@@H](O[C@@H]2CC[C@H](N(C)C)[C@@H](C)O2)/C=C/C=C/C[C@@H](C)OC(=O)C[C@H]1O	< 4.34
O=C1c2ccccc2C(=O)c2ccccc21	< 4.34
CC(=O)OCC(CCn1cnc2cnc(N)nc21)COC(C)=O	< 4.34
C=CCn1c(=O)n([C@@H]2O[C@H](CO)[C@@H](O)[C@H]2O)c2nc(N)[nH]c(=O)c21	< 4.34
CCc1cccc2c3c([nH]c12)C(CC)(CC(=O)O)OCC3 (centres undefined)	< 4.34
CCC1(c2ccccc2)CCC(=O)NC1=O (centres undefined)	< 4.34
CCCCCCCCCCCCCCCCCCCCCCO	< 4.34
CCOC(=O)O[C@]1(C(=O)COC(=O)CC)CC[C@H]2[C@@H]3CCC4=CC(=O)C=C[C@]4(C)[C@H]3[C@@H](O)C[C@@]21C	< 4.34
CC(=O)Oc1c(C)c(C)c2c(c1C)CC[C@@](C)(CCC[C@H](C)CCC[C@H](C)CCCC(C)C)O2	< 4.34

Structure (SMILES)	pIC50
N=C(N)NCC1COC2(CCCCC2)O1.N=C(N)NCC1COC2(CCCCC2)O1.O=S(=O)(O)O (centres undefined)	< 4.34
CN(C)CCc1ccc(O)cc1	< 4.34
CCC1(c2ccccc2)C(=O)NC(=O)N(C(=O)c2ccccc2)C1=O (centres undefined)	< 4.34
O.O=P1(N(CCCl)CCCl)NCCCO1 (centres undefined)	< 4.34
CC(C)[C@H](N)C(=O)OCCOCn1cnc2c(=O)[nH]c(N)nc21.Cl	< 4.34
CCCCNC(=N)NC(=N)N	< 4.34
O=P([O-])(O)C(O)(Cc1cccnc1)P(=O)([O-])O.[Na+].[Na+]	< 4.34
CCN(CC)CCNC(=O)COc1ccc(Cl)cc1	< 4.34
COc1ccc2c(=O)c(C)c(-c3ccccc3)oc2c1CN(C)C.Cl	< 4.34
C#C[C@]1(O)CC[C@H]2[C@@H]3CCC4=CC(=O)CC[C@@H]4[C@H]3CC[C@@]21C	< 4.34
CC[C@H]1OC(=O)[C@H](C)C(=O)[C@H](C)[C@@H](O[C@@H]2O[C@H](C)C[C@H](N(C)C)[C@H]2O)[C@](C)(OC)C[C@@H](C)C(=O)[C@H](C)[C@H]2N(CCCCn3cnc(-c4cccnc4)c3)C(=O)O[C@]12C	< 4.34
C=CCN(C1=NCCN1)c1c(Cl)cccc1Cl	< 4.34
CC(C)(C)C(=O)C(Oc1ccc(Cl)cc1)n1ccnc1 (centres undefined)	< 4.34
CC12CC3CC(C)(C1)CC(N)(C3)C2	< 4.34
CO[C@H]1C[C@H](O[C@H]2[C@H](C)[C@@H](O[C@@H]3O[C@H](C)C[C@H](N(C)C)[C@H]3O)[C@@H](C)C[C@]3(CO3)C(=O)[C@H](C)[C@@H](O)[C@@H](C)[C@@H](C)OC(=O)[C@@H]2C)O[C@@H](C)[C@@H]1O.O=P(O)(O)O	< 4.34
Cl.NNc1nncc2ccccc12	< 4.34
CCC1C2CC3[C@@H]4N(C)c5ccccc5C45CC(C2[C@H]5O)N3[C@@H]1O (some centres undefined)	< 4.34
C[C@H]1COc2c(C3(N)CC3)c(F)cc3c(=O)c(C(=O)O)cn1c23	< 4.34
CCN1CCN(c2cc3c(cc2F)c(=O)c(C(=O)O)cn3C2CC2)CC1	< 4.34
COC(=O)[C@H](Cc1ccccc1)NC(=O)[C@@H](N)CC(=O)O	< 4.34
CNC1CCCN(c2c(F)cc3c(=O)c(C(=O)O)cn(C4CC4)c3c2OC)C1 (centres undefined)	< 4.34
COc1ccc2cc(CCC(C)=O)ccc2c1	< 4.34
